Reference: ChEMBL document CHEMBL6109072, “Discovery of highly potent dual GSPT1/BRD4 degraders with anti-AML activity” (Eur J Med Chem, 2025)
Active and inactive are the calls of the source. The rule behind the calls is not given here.

What was measured:
MOLM-13 [1] = test: Antitumor activity against human MOLM-13 cells expressing GFP-Fluc xenografted in IL2Rg-null NSG mouse assessed as reduction in leukemia burden at 2.5 mg/kg, ip bid treated for 21 days by bioluminescence imaging based analysis; format: functional, organism-based; settings: time 21.0 day
MOLM-13 [2] = test: Induction of cell cycle arrest in human MOLM-13 cells assessed as accumulation at G1 phase at 0.1 uM incubated for 6 to 12 hrs by PI staining based flow cytometry; format: functional; settings: time 6-12 hrs
MOLM-13 [3] = test: Antitumor activity against human MOLM-13 cells expressing GFP-Fluc xenografted in IL2Rg-null NSG mouse assessed as prolongation of median survival time at 2.5 mg/kg, ip bid treated for 21 days; format: functional, organism-based; settings: time 21.0 day
MOLM-13 [4] = test: Antitumor activity against human MOLM-13 cells expressing GFP-Fluc xenografted in IL2Rg-null NSG mouse assessed as reduction in GFP-positive leukemic cells in bone marrow at 2.5 mg/kg, ip bid treated for 21 days by flow cytometry; format: functional, organism-based; settings: time 21.0 day
MOLM-13 [5] = test: Induction of apoptosis in human MOLM-13 cells assessed as late apoptotic cells at 0.1 uM incubated for 6 hrs by Annexin V-APC/7-AAD staining based flow cytometry (reference value: 0.01 %); format: functional
[6] = Cytotoxicity in human PBMC cells at 62.5 to 1000 nM; format: toxicity, cell-based; settings: 1 µM, dose 62.5-1000 nM
MOLM-13 [7] = test: Induction of apoptosis in human MOLM-13 cells assessed as late apoptotic cells at 0.1 uM incubated for 12 hrs by Annexin V-APC/7-AAD staining based flow cytometry (reference value: 0.01 %); format: functional
THP-1 = test: Antiproliferative activity against human THP-1 cells incubated for 3 days by CCK8 assay; format: functional, cell-based; settings: THP-1, 72 h
Daudi = test: Antiproliferative activity against human Daudi cells incubated for 3 days by CCK8 assay; format: functional, cell-based; settings: 72 h
NB-4 = test: Antiproliferative activity against human NB4 cells incubated for 3 days by CCK8 assay; format: functional, cell-based; settings: NB-4, 72 h
MOLM-13 [8] = test: Antitumor activity against human MOLM-13 cells expressing GFP-Fluc xenografted in IL2Rg-null NSG mouse assessed as reduction in GFP-positive leukemic cells in spleen at 2.5 mg/kg, ip bid treated for 21 days by flow cytometry; format: functional, organism-based; settings: time 21.0 day
MOLM-13 [9] = test: Induction of apoptosis in human MOLM-13 cells assessed as viable cells at 0.1 uM incubated for 12 hrs by Annexin V-APC/7-AAD staining based flow cytometry (reference value: 97.12 %); format: functional; settings: read-out: Activity
MOLM-13 [10] = test: Antiproliferative activity against human MOLM-13 cells incubated for 3 days by CCK8 assay; format: functional, cell-based; settings: MOLM-13, 72 h
Raji = test: Antiproliferative activity against human Raji cells incubated for 3 days by CCK8 assay; format: functional, cell-based; settings: 72 h
MOLM-13 [11] = test: Induction of apoptosis in human MOLM-13 cells assessed as late apoptotic cells at 0.1 uM incubated for 24 hrs by Annexin V-APC/7-AAD staining based flow cytometry (reference value: 0.01 %); format: functional
MOLM-13 [12] = test: Induction of apoptosis in human MOLM-13 cells assessed as early apoptotic cells at 0.1 uM incubated for 6 hrs by Annexin V-APC/7-AAD staining based flow cytometry (reference value: 0.08 %); format: functional
MOLM-13 [13] = test: Induction of apoptosis in human MOLM-13 cells assessed as viable cells at 0.1 uM incubated for 6 hrs by Annexin V-APC/7-AAD staining based flow cytometry (reference value: 97.12 %); format: functional; settings: read-out: Activity
[14] = biological target: T1, Protein cereblon/Eukaryotic peptide chain release factor GTP-binding subunit ERF3A (Homo sapiens, UniProt Q96SW2+P15170); test: PROTAC activity at CRBN/GSPT1 in human MOLM-13 cells assessed as GSPT1 degradation at 100 nM incubated for 6 hrs by Western blot analysis; format: cell-based
Target sequence in this assay (P15170 whole entry, looked up): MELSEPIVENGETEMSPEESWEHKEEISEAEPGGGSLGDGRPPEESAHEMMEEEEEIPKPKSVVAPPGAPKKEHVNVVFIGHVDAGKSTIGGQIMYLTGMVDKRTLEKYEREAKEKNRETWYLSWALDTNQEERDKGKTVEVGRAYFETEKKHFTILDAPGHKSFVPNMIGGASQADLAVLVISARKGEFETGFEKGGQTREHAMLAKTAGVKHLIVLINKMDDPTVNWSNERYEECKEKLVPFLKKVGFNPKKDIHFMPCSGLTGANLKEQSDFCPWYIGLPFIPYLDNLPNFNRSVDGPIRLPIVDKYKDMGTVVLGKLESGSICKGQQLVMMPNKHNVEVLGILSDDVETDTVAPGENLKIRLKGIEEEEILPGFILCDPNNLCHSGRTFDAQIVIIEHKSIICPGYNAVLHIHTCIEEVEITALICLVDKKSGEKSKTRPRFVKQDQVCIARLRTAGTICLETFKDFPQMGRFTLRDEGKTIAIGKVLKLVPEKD
Target sequence in this assay (Q96SW2 whole entry, looked up): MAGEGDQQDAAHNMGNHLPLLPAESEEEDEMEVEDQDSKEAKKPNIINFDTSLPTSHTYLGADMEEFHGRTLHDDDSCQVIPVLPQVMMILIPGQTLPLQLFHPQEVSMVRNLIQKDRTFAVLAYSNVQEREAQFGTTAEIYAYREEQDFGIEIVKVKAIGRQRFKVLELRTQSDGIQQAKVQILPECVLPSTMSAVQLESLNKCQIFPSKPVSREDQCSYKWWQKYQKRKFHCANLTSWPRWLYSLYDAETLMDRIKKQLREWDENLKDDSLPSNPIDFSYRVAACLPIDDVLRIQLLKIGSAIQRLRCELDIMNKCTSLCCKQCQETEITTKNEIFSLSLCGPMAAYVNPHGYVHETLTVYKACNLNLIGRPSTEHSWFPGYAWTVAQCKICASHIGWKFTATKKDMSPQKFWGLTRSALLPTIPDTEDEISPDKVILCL

MOLM-13 [15] = test: Induction of apoptosis in human MOLM-13 cells assessed as necrotic cells at 0.1 uM incubated for 12 hrs by Annexin V-APC/7-AAD staining based flow cytometry (reference value: 2.79 %); format: functional
KARPAS-299 = test: Antiproliferative activity against human KARPAS-299 cells incubated for 3 days by CCK8 assay; format: functional, cell-based; settings: Homo sapiens, KARPAS-299, 72 h
[16] = biological target: T1, Protein cereblon/Eukaryotic peptide chain release factor GTP-binding subunit ERF3A; test: PROTAC activity at CRBN/GSPT1 in human MOLM-13 cells assessed as GSPT1 degradation incubated for 24 hrs by Western blot analysis; format: cell-based
Target sequence in this assay (Q96SW2 whole entry): as the sequence (Q96SW2 whole entry, looked up) above
Target sequence in this assay (P15170 whole entry): as the sequence (P15170 whole entry, looked up) above

MOLM-13 [17] = test: Antitumor activity against human MOLM-13 cells expressing GFP-Fluc xenografted in IL2Rg-null NSG mouse assessed as reduction in spleen weight at 2.5 mg/kg, ip bid treated for 21 days; format: functional, organism-based; settings: time 21.0 day
MOLM-13 [18] = test: Antitumor activity against human MOLM-13 cells expressing GFP-Fluc xenografted in IL2Rg-null NSG mouse assessed as reduction in GFP-positive leukemic cells in peripheral blood at 2.5 mg/kg, ip bid treated for 21 days by flow cytometry; format: functional, organism-based; settings: time 21.0 day
[19] = biological target: T2, Protein cereblon/Bromodomain-containing protein 4 (Homo sapiens, UniProt O60885+Q96SW2); test: PROTAC activity at CRBN/BRD4 in human MOLM-13 cells assessed as BRD4 degradation at 1 uM incubated for 24 hrs by Western blot analysis; format: cell-based
T2 sequence (Q96SW2 whole entry, looked up, other chains not shown): as the sequence (Q96SW2 whole entry, looked up) above

[20] = biological target: T2, Protein cereblon/Bromodomain-containing protein 4; test: PROTAC activity at CRBN/BRD4 in human MOLM-13 cells assessed as BRD4 degradation at 100 nM incubated for 6 hrs by Western blot analysis; format: cell-based
[21] = Toxicity in IL2Rg-null NSG mouse xenografted with human MOLM-13 cells expressing GFP-Fluc assessed as drug tolerance at 2.5 mg/kg, ip bid treated for 18 days; format: organism-based; settings: in vivo, 432 h, time 18 day
[22] = Toxicity in IL2Rg-null NSG mouse xenografted with human MOLM-13 cells expressing GFP-Fluc assessed as body weight change at 2.5 mg/kg, ip bid treated for 18 days; format: organism-based; settings: in vivo, 432 h, time 18 day
[23] = biological target: T2, Protein cereblon/Bromodomain-containing protein 4; test: PROTAC activity at CRBN/BRD4 in human MOLM-13 cells assessed as BRD4 degradation incubated for 24 hrs by Western blot analysis; format: cell-based
MOLM-13 [24] = test: Induction of apoptosis in human MOLM-13 cells assessed as viable cells at 0.1 uM incubated for 24 hrs by Annexin V-APC/7-AAD staining based flow cytometry (reference value: 97.12 %); format: functional; settings: read-out: Activity
SU-DHL-1 = test: Antiproliferative activity against human SU-DHL-1 cells incubated for 3 days by CCK8 assay; format: functional, cell-based; settings: SU-DHL-1, 72 h
HL-60 = test: Antiproliferative activity against human HL-60 cells incubated for 3 days by CCK8 assay; format: functional, cell-based; settings: HL-60, 72 h
MOLM-13 [25] = test: Antiproliferative activity against human MOLM-13 cells assessed as cell viability at 0.1 uM incubated for 3 days by CCK8 assay relative to control; format: functional; settings: MOLM-13, 72 h, time 3 day, read-out: Activity
MOLM-13 [26] = test: Induction of apoptosis in human MOLM-13 cells assessed as early apoptotic cells at 0.1 uM incubated for 24 hrs by Annexin V-APC/7-AAD staining based flow cytometry (reference value: 0.08 %); format: functional
MOLM-13 [27] = test: Induction of apoptosis in human MOLM-13 cells assessed as necrotic cells at 0.1 uM incubated for 24 hrs by Annexin V-APC/7-AAD staining based flow cytometry (reference value: 2.79 %); format: functional
MOLM-13 [28] = test: Induction of apoptosis in human MOLM-13 cells assessed as early apoptotic cells at 0.1 uM incubated for 12 hrs by Annexin V-APC/7-AAD staining based flow cytometry (reference value: 0.08 %); format: functional
MOLM-13 [29] = test: Induction of apoptosis in human MOLM-13 cells assessed as necrotic cells at 0.1 uM incubated for 6 hrs by Annexin V-APC/7-AAD staining based flow cytometry (reference value: 2.79 %); format: functional
OCI-AML-3 = test: Antiproliferative activity against human OCI-AML-3 cells incubated for 3 days by CCK8 assay; format: functional, cell-based; settings: Homo sapiens, OCI-AML-3, 72 h

IC50 (THP-1): 18 nM
IC50 (Daudi): 8.92 nM
IC50 (MOLM-13 [10]): 8.55 nM
IC50 (Raji): 10.1 nM
Activity [14]: Active
IC50 (KARPAS-299): 25.5 nM
DC50 [16]: 5.25 nM
Activity [19]: Active
Activity [20]: Active
DC50 [23]: 0.48 nM
IC50 (SU-DHL-1): 6.29 nM
IC50 (HL-60): 8.19 nM
IC50 (OCI-AML-3): 14.4 nM
Structure (SMILES): Cc1sc2c(c1C)C(c1ccc(Cl)cc1)=N[C@@H](CC(=O)N1CCN(CC3CCN(c4ccc5c(c4)C(=O)N(C4CCC(=O)NC4=O)C5=O)CC3)CC1)c1nnc(C)n1-2 (some centres not stated)
Activity (MOLM-13 [1]): Active
Activity (MOLM-13 [2]): Active
Activity (MOLM-13 [3]): Active
Activity (MOLM-13 [4]): Active
Activity (MOLM-13 [5]): 0.3%
Activity [6]: Non-toxic
Activity (MOLM-13 [7]): 2.01%
IC50 (NB-4): 2.69 nM
Activity (MOLM-13 [8]): Active
viability at 0.1 µM (MOLM-13 [9]): 57.8%
Activity (MOLM-13 [11]): 21.1%
Activity (MOLM-13 [12]): 20.64%
viability at 0.1 µM (MOLM-13 [13]): 78.7%
Activity (MOLM-13 [15]): 0.26%
Activity (MOLM-13 [17]): Active; Compound Activity Consistent With Decreased Leukemic Infiltration
Activity (MOLM-13 [18]): Active
Activity [21]: Non-toxic
Activity [22]: Non-toxic
viability at 0.1 µM (MOLM-13 [24]): 10.2%
viability at 0.1 µM (MOLM-13 [25]): 7.02%
Activity (MOLM-13 [26]): 67.5%
Activity (MOLM-13 [27]): 1.18%
Activity (MOLM-13 [28]): 39.9%
Activity (MOLM-13 [29]): 0.36%
